Consider one compound from PMC9405524, “Pre‐steady‐state kinetics and solvent isotope effects support the “billiard‐type” transport mechanism in Na ^+‐translocating pyrophosphatase” (Protein Science : A Publication of the Protein Society, 2022).

The target of the assay is T1, Tm‐mPPase (Thermotoga maritima membrane pyrophosphatase) (Thermotoga maritima, UniProt Q9S5X0).
T1 construct: gene hppA; recombinant in E. coli C41(DE3), assayed in inverted membrane vesicles; homodimer, subunit mass 77 kDa
T1 sequence (Q9S5X0 1-726): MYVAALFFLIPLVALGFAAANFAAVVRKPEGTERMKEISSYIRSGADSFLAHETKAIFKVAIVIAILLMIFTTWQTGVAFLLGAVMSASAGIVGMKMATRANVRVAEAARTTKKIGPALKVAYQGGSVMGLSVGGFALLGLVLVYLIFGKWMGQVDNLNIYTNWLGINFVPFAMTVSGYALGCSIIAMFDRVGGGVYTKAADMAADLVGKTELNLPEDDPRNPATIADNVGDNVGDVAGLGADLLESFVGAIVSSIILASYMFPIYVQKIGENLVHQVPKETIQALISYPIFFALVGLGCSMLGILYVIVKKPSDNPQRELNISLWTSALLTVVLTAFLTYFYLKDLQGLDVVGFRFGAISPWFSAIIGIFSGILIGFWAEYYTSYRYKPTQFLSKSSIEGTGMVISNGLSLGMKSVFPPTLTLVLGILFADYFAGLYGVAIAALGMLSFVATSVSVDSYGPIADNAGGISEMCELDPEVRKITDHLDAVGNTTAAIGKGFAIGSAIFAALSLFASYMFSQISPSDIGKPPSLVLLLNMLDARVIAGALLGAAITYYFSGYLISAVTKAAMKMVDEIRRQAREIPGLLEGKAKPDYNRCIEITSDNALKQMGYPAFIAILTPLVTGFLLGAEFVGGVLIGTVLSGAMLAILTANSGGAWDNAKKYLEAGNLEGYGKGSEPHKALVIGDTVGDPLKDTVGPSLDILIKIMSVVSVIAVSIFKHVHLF
The assay can be described thus: inhibition of PPi hydrolysis, active-site titration in inverted membrane vesicles, Pi analyzer. The conditions noted are these: 25°C, pH 7.2, 5 mM MgCl2, 100 mM NaCl, no K+, 8 μM PPi; competitive; tight-binding fit; apparent, not corrected for substrate; read-out: K i ^app. It counts as biochemical.

For the compound `NC(P(=O)(O)O)P(=O)(O)O` [AMDP], the Ki was 5 ± 2 nM.
